Measured values reported in patent publication US9017645B2, “Homoglutamic acid derivatives” (Piramal Imaging SA, priority 2009, dated 2015).

Tested on: H460 tumor cells
Assay: Retention of activity in H460 tumor cells under efflux conditions
Format: cell-based, human
Settings: H460 cells loaded 30 min, then 30 min incubation in new buffer (efflux conditions)
Description: FIG. 5: Retention of (2S)-2-amino-5-[3-[^18F]fluoropropyl]hexanedioic acid in H460 tumor cells. H460 cells were loaded with 0.25 MBq (2S)-2-amino-5-[3-[^18F]fluoropropyl]hexanedioic acid for 30 min in PBS/BSA. After washing, the cells were incubated with new buffer (without radioactivity) for additional 10, 20, 30 min. The release of radioactivity into the supernatant as well as the retention inside the cells was determined.
In a second experiment, the retention of activity in tumor cells was examined. H460 cells were loaded with 0.25 MBq (2S)-2-amino-5-[3-[^18F]fluoropropyl]hexanedioic acid for 30 minutes in PBS/BSA-buffer. After this uptake, the buffer was removed and the cells were washed with PBS. The cells were then incubated with new PBS-buffer (without activity) for up to 30 min. The release of activity into the supernatant as well as the retention of activity inside the cells was examined. It was discovered, that more than 80% of activity were retained in the tumor cells after 30 min incubation under these efflux conditions (see FIG. 5).

Compound: N[C@@H](CCC(CCC[18F])C(=O)O)C(=O)O (stereo partly drawn) [(2S)-2-amino-5-[3-[^18F]fluoropropyl]hexanedioic acid]
- activity retained in the tumor cells: more than 80%
